Measurements reported in patent US5952366A, “Alkyl ether analogs of chlorins having an N-substituted imide ring” (Health Research, Inc., priority 1998, dated 1999).

Columns and labels:
[1] = system: Radiation induced fibrosarcoma (RIF) tumors; experiment: In vivo tumor response (photodynamic therapy, RIF tumors in C3H mice); settings: for Tumor Response (%): 705 nm, 135 J/cm^2, 24 h post injection
Experimental: Radiation induced fibrosarcoma (RIF) tumors, were implanted subcutanaceously into the axilla of 5-7 week old female C3H mice. When tumors grew to about 5 mm in diameter, the mice were injected with various doses of the photosensitizers. The mice (6 mice per group) were restrained in aluminum holders and each tumor illuminated with 135 J/cm^2 of light from a laser tuned at the longest wavelength absorption maximum of the photosensitizers at 705 nm. The percentage of short term control was recorded daily.
*Six mice/group (RIF tumor). 1.0 μmol/kg. 705 nm, 135J/cm^2 (24 h

[2] = human, in vivo; cited from earlier work
[3] = 1.0 μmol/kg, days 1-2, six mice/group

Row | Compound | Tumor Response (%) ([1]; 1.0 μmol/kg, day 7) | Tumor Response (%) ([1]; 1.0 μmol/kg, day 14) | Tumor Response (%) ([1]; 1.0 μmol/kg, day 21) | Tumor Response (%) ([1]; 1.0 μmol/kg, day 30) | Tumor Response (%) ([1]; 1.0 μmol/kg, day 90) | Tumor Response (%) [1, 3] | other results
1 | CCCCCCOC(C)c1c(C)c2cc3nc(c4c5[nH]c(cc6nc(cc1[nH]2)C(C)=C6CC)c(C)c5C(=O)N(CCC)C4=O)[C@@H](CCC(=O)OC)[C@@H]3C (stereo partly drawn) [R^1 = hexyl, R^2 = propyl] | 83% | 83% | 50% | 33% | 33% | 100% | Tumor Response (%) ([1]; 0.5 μmol, day 7): 66%; Tumor Response (%) ([1]; 0.5 μmol, day 14): 33%; Tumor Response (%) ([1]; 0.5 μmol, day 21): 17%; Tumor Response (%) ([1]; 0.5 μmol, day 30): 17%; Tumor Response (%) ([1]; 0.5 μmol, day 90): 17%; Tumor Response (%) ([1]; 0.5 μmol, days 1-2): 100%
2 | CCCCCCCOC(C)c1c(C)c2cc3nc(c4c5[nH]c(cc6nc(cc1[nH]2)C(C)=C6CC)c(C)c5C(=O)N(CCCCCC)C4=O)[C@@H](CCC(=O)OC)[C@@H]3C (stereo partly drawn) [R^1 = heptyl, R^2 = hexyl, heptyl ether analog of N-hexyl purpurin imide] | 100% | 100% | 100% | 100% | 83% | 100% | Tumor Response (%) ([1]; 0.25 μmol, day 7): 60%; Tumor Response (%) ([1]; 0.25 μmol, day 14): 20%; Tumor Response (%) ([1]; 0.25 μmol, day 21): 20%; Tumor Response (%) ([1]; 0.25 μmol, day 30): 20%; Tumor Response (%) ([1]; 0.25 μmol, day 90): 20%; Tumor Response (%) ([1]; 0.25 μmol, days 1-2): 100%; effectiveness in this series ([1]; dose of 1.0 μmol/kg): most effective
3 | CCCOC(C)c1c(C)c2cc3nc(c4c5[nH]c(cc6nc(cc1[nH]2)C(C)=C6CC)c(C)c5C(=O)N(CCC)C4=O)[C@@H](CCC(=O)OC)[C@@H]3C (stereo partly drawn) [R^1 = propyl, R^2 = propyl] | 33% | 17% |  |  |  | 100% | 
4 | Photofrin |  |  |  |  |  |  | normal tissue clearance [2]: lacks rapid normal tissue clearance; skin photosensitization [2]: photosensitizes the skin
